Our source for the T/C values is PubChem BioAssay AID192 (DTP/NCI, 2004).

Several values for one entry are separate records, joined by “and”; a condition that tells them apart may be missing. Equal values may be shown once. Toxic doses and inconclusive results are not listed.

This assay has as its system BDF1 mice, B16 melanoma ip, median survival T/C. Kind of assay: NCI In Vivo Anticancer Drug Screen. Data for tumor model B16 Melanoma (intraperitoneal) in B6D2F1 (BDF1) mice. Conditions: endpoint: median survival time, higher = longer survival. Summed up: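 Transplantable tumor model; survival or tumor size measured; reported as T/C, treated over vehicle control.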
Setting [1] is: dose: 100.0 mg/kg/injection, schedule: Q01DX009 (ip), vehicle: saline.
Where [2] appears, read: dose: 200.0 mg/kg/injection, schedule: Q01DX009 (ip), vehicle: saline.
The mark [3] stands for this setting: dose: 400.0 mg/kg/injection, schedule: Q01DX009 (ip), vehicle: saline.
The mark [4] stands for this setting: dose: 12.5 mg/kg/injection, schedule: Q01DX009 (ip), vehicle: Klucel (hydroxypropylcellulose) (HPC).
The mark [5] stands for this setting: dose: 25.0 mg/kg/injection, schedule: Q01DX009 (ip), vehicle: Klucel (hydroxypropylcellulose) (HPC).
Where [6] appears, read: dose: 12.5 mg/kg/injection, schedule: Q01DX009 (ip), vehicle: saline with Tween-80.
Where [7] appears, read: dose: 100.0 mg/kg/injection, schedule: Q01DX009 (ip), vehicle: saline with Tween-80.
[8] abbreviates: dose: 200.0 mg/kg/injection, schedule: Q01DX009 (ip), vehicle: saline with Tween-80.
The mark [9] stands for this setting: dose: 6.25 mg/kg/injection, schedule: Q01DX009 (ip), vehicle: saline with Tween-80.
Setting [10] is: dose: 25.0 mg/kg/injection, schedule: Q01DX009 (ip), vehicle: saline with Tween-80.
The mark [11] stands for this setting: dose: 12.5 mg/kg/injection, schedule: Q01DX009 (ip), vehicle: saline.
[12] abbreviates: dose: 25.0 mg/kg/injection, schedule: Q01DX009 (ip), vehicle: saline.
Setting [13] is: dose: 50.0 mg/kg/injection, schedule: Q01DX009 (ip), vehicle: saline.
Where [14] appears, read: dose: 50.0 mg/kg/injection, schedule: Q01DX009 (ip), vehicle: Klucel (hydroxypropylcellulose) (HPC).
[15] abbreviates: dose: 50.0 mg/kg/injection, schedule: Q01DX009 (ip), vehicle: saline with Tween-80.
Where [16] appears, read: dose: 100.0 mg/kg/injection, schedule: Q01DX009 (ip), vehicle: Klucel (hydroxypropylcellulose) (HPC).
Where [17] appears, read: dose: 200.0 mg/kg/injection, schedule: Q01DX009 (ip), vehicle: Klucel (hydroxypropylcellulose) (HPC).

On to `OC(CI)C(O)C(O)C(O)CI` (stereo unspecified), for which the T/C under setting [1] was 97 % of control, the T/C under setting [2] was 94 % of control and the T/C under setting [3] is 103 % of control.
Regarding `CSc1ncnc2c1ncn2C1OC(CO)C(O)C1O` (stereo unspecified), the T/C reads like this: (dose: 2.0 mg/kg/injection, schedule: Q01DX009 (ip), vehicle: saline sonified) 95 % of control; (dose: 4.0 mg/kg/injection, schedule: Q01DX009 (ip), vehicle: saline sonified) 88 % of control; (dose: 7.5 mg/kg/injection, schedule: Q01DX009 (ip), vehicle: saline with Tween-80) 100 % of control; (dose: 8.0 mg/kg/injection, schedule: Q01DX009 (ip), vehicle: saline sonified) 86 % of control; (dose: 15.0 mg/kg/injection, schedule: Q01DX009 (ip), vehicle: saline with Tween-80) 97 % of control; (dose: 16.0 mg/kg/injection, schedule: Q01DX009 (ip), vehicle: saline sonified) 95 % of control.
Regarding `Cc1ccc(NC(=O)Nc2cccc3ccccc23)cc1Cl`, the T/C by setting is: under setting [4], 94 % of control; under setting [5], 88 % of control.
As to `O=C(CC1(Cl)C(F)(F)C(F)(F)C1(F)F)c1ccccc1`, the T/C reads like this: (dose: 0.75 mg/kg/injection, schedule: Q01DX009 (ip), vehicle: saline with Tween-80) 100 % of control; (dose: 1.5 mg/kg/injection, schedule: Q01DX009 (ip), vehicle: saline with Tween-80) 100 % of control; (dose: 3.0 mg/kg/injection, schedule: Q01DX009 (ip), vehicle: saline with Tween-80) 95 % of control; (dose: 4.0 mg/kg/injection, schedule: Q04DX003 (ip), vehicle: saline) 100 % of control; under setting [6], 90 % of control; (dose: 25.0 mg/kg/injection, schedule: Q04DX003 (ip), vehicle: saline with Tween-80) 102 % of control.
For `Oc1ccc(/C=N\N=C\c2ccc(O)cc2)cc1`, the T/C runs as follows: under setting [7], 95 % of control; under setting [8], 90 % of control.
Turning to `c1ccc2c(c1)CCc1ccccc1C2NC1=NCCO1`, the T/C was 104 % of control under setting [9], 100 % of control under setting [6] and 92 % of control under setting [10].
With `Cc1ccc(C(=O)CCCCl)cc1C`, the T/C runs as follows: under setting [7], 100 % of control; under setting [8], 106 % of control; (dose: 400.0 mg/kg/injection, schedule: Q01DX009 (ip), vehicle: saline with Tween-80) 97 % of control.
`O=C1C=CC(n2cc(F)c(=O)[nH]c2=O)O1` (stereo unspecified): the T/C runs as follows: (dose: 6.25 mg/kg/injection, schedule: Q01DX009 (ip), vehicle: saline) 97 % of control; under setting [11], 95 % of control; under setting [12], 96 % of control; under setting [13], 107 % of control; under setting [1], 97 % of control.
As for `CC1(C)N=C(N)N=C(N)N1c1ccc(CCCCc2ccc(Cl)c(S(=O)(=O)F)c2)c(Cl)c1`, the T/C is, setting by setting: (dose: 8.0 mg/kg/injection, schedule: Q01DX009 (ip), vehicle: saline) 105 % of control; (dose: 12.0 mg/kg/injection, schedule: Q01DX009 (ip), vehicle: saline) 114 % of control; (dose: 18.0 mg/kg/injection, schedule: Q01DX009 (ip), vehicle: saline) 118 % of control.
Take `CC(N)C(=O)NC(CC(=O)O)C(=O)O` (stereo unspecified): the T/C was 99 % of control under setting [11]; 93 % of control under setting [12]; 98 % of control under setting [13]; 93 % of control under setting [1]; 98 % of control under setting [2].
Regarding `COc1ccc(C(C#N)CC(=O)c2ccc3c(c2)OCO3)cc1OC` (stereo unspecified), the T/C was 103 % of control under setting [1], 100 % of control under setting [2] and 100 % of control under setting [3].
With `O=C1NC(c2ccccc2)(c2ccccc2)C(=O)N1SC(Cl)(Cl)Cl`, the T/C is, setting by setting: (dose: 3.12 mg/kg/injection, schedule: Q01DX009 (ip), vehicle: Klucel (hydroxypropylcellulose) (HPC)) 106 % of control; (dose: 6.25 mg/kg/injection, schedule: Q01DX009 (ip), vehicle: Klucel (hydroxypropylcellulose) (HPC)) 92 % of control; under setting [4], 103 % of control; under setting [5], 97 % of control; under setting [14], 91 % of control.
Turning to `CC1(C)N=C(N)N=C(N)N1c1cccc(C#N)c1`, the T/C runs as follows: (dose: 25.0 mg/kg/injection, schedule: Q01DX005 (ip), vehicle: saline) 95 % of control; (dose: 50.0 mg/kg/injection, schedule: Q01DX005 (ip), vehicle: saline) 100 % of control; (dose: 50.0 mg/kg/injection, schedule: Q04DX003 (ip), vehicle: saline) 115 % of control; (dose: 100.0 mg/kg/injection, schedule: Q01DX005 (ip), vehicle: saline) 104 % of control; (dose: 100.0 mg/kg/injection, schedule: Q04DX003 (ip), vehicle: saline) 93 % of control.
Regarding `C=C(C)/C([O-])=N/[N+](C)(C)CC(O)CCCCCCCCCCCC` (stereo unspecified), the T/C is 91 % of control (dose: 25.0 mg/kg/injection, schedule: Q01DX001 (ip), vehicle: saline) and 95 % of control (dose: 50.0 mg/kg/injection, schedule: Q01DX001 (ip), vehicle: saline).
As for `CC(=O)OC1CCC(C(C)(C)C)CC1` (stereo unspecified), the T/C is 113 % of control under setting [15] and 91 % of control under setting [7].
`O=[N+]([O-])c1ccc2nc3c(nc2c1)-c1cccc2cccc-3c12`: the T/C by setting is: under setting [15], 103 % of control; under setting [7], 100 % of control; under setting [8], 98 % of control.
On to `c1ccc2c(c1)ccc1c[n+]3ccccc3cc12`, for which the T/C (dose: 0.25 mg/kg/injection, schedule: Q01DX009 (ip), vehicle: saline) is 114 % of control; the T/C (dose: 0.5 mg/kg/injection, schedule: Q01DX009 (ip), vehicle: saline) is 100 % of control; the T/C (dose: 1.0 mg/kg/injection, schedule: Q01DX009 (ip), vehicle: saline) was 97 % of control.
`Oc1ccc(C2C=CCC2)cc1C1C=CCC1` (stereo unspecified): the T/C reads like this: under setting [16], 99 % of control and 100 % of control; under setting [17], 89 % of control and 96 % of control; (dose: 400.0 mg/kg/injection, schedule: Q01DX009 (ip), vehicle: Klucel (hydroxypropylcellulose) (HPC)) 100 % of control and 107 % of control.
Consider `CC(=O)OC1C(OC(C)=O)C2C(C)CC3OC(=O)C(C)C3CC2(C)C1OC(C)=O` (stereo unspecified), for which the T/C is 111 % of control under setting [10], 110 % of control under setting [15] and 106 % of control under setting [7].
On to `S=P(NCCS)(N1CC1)N1CC1`, for which the T/C is 95 % of control under setting [9]; 96 % of control under setting [6]; 98 % of control under setting [10]; 105 % of control (dose: 100.0 mg/kg/injection, schedule: Q04DX003 (ip), vehicle: saline with Tween-80); 97 % of control (dose: 200.0 mg/kg/injection, schedule: Q04DX003 (ip), vehicle: saline with Tween-80); 95 % of control (dose: 400.0 mg/kg/injection, schedule: Q04DX003 (ip), vehicle: saline with Tween-80).
With `CC(=O)OC1C(O)C(C)OC(OC2C(OC(=O)C3CCC4C(C3)OC3(CC(OC(=O)/C=C/c5ccccc5)C(C)CO3)C43CO3)OC(C)C(O)C2OC(C)=O)C1O` (stereo unspecified), the T/C (dose: 0.5 mg/kg/injection, schedule: Q01DX009 (ip), vehicle: saline + alcohol) was 110 % of control; the T/C (dose: 1.0 mg/kg/injection, schedule: Q01DX009 (ip), vehicle: saline + alcohol) was 120 % of control; the T/C (dose: 8.0 mg/kg/injection, schedule: Q01DX009 (ip), vehicle: saline + alcohol) is 152 % of control and 158 % of control; the T/C (dose: 16.0 mg/kg/injection, schedule: Q01DX009 (ip), vehicle: saline + alcohol) is 151 % of control.
Turning to `CCCCC(CC)C(O)C1CCCCC1O` (stereo unspecified), the T/C is 100 % of control under setting [16] and 89 % of control under setting [17].
On to `CCCCOC(=O)C(C)OC(=O)CCC` (stereo unspecified), for which the T/C by setting is: under setting [5], 112 % of control; under setting [14], 108 % of control; under setting [16], 104 % of control; under setting [17], 122 % of control.
`Nc1nc(N)c2nc(CNc3ccc(C(=O)NC(CCC(=O)O)C(=O)O)cc3)cnc2n1` (stereo unspecified): the T/C (dose: 0.03 mg/kg/injection, schedule: Q01DX009 (ip), vehicle: saline with Tween-80) was 91 % of control; the T/C (dose: 0.13 mg/kg/injection, schedule: Q01DX009 (ip), vehicle: saline with Tween-80) is 102 % of control; the T/C (dose: 0.25 mg/kg/injection, schedule: Q01DX009 (ip), vehicle: saline with Tween-80) was 91 % of control and 95 % of control.
